Common to all, as to experiment: Experiment on weeding effect in post-emergence stage
Common to all, as to assay type: in vivo
Common to all, as to settings: dose 15 g a.i./ha, fresh weight control rate level

The test system of one experiment is Eleusine indica. The essentials: (§1)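 Weeds sown in soil-filled pots, covered with 0.5-2 cm soil and greenhouse-grown; at the 2-3 leaf stage (2 weeks after sowing) plants were sprayed with compound in acetone/water with Tween 80 and 1.5 liter/ha methyl oleate concentrate. Weeding effect scored after 3 weeks; doses 500-15 g a.i./ha, triplicate means.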
The subject of a further experiment is Veronica didyma Tenore. The essentials:
as §1

For another experiment, the system named is Leptochloa chinensis. An outline of the steps: as §1
The test system of a further experiment is Digitaria sanguinalis. The essentials: as §1
The test system of a further experiment is Echinochloa crusgalli. The essentials: as §1
Another experiment has as its system Galium aparine. The essentials:
as §1

Another experiment deals with Abutilon theophrasti. The essentials: as §1
In another experiment the test system is Setaria viridis. The essentials:
as §1

The next experiment concerns Amaranthus retroflexus. The essentials: as §1

On to `CC(C)=NOC(=O)C1(C)CC(c2cc(-n3c(=O)cc(C(F)(F)F)n(C)c3=S)c(F)cc2Cl)=NO1` (stereo not drawn) [Compound 218], for which the “weeding effect in post-emergence stage, Eleusine indica (level)” value (“weeding effect … Eleusine indica (level)” below) in the experiment with Eleusine indica is 5 (Level 5: growth control rate is above 85%). Besides, in the experiment with Veronica didyma Tenore, the “weeding effect in post-emergence stage, Veronica didyma Tenore (level)” value (from here on “weeding effect … Veronica didyma Tenore (level)”) was 5 (Level 5: growth control rate is above 85%). The “weeding effect in post-emergence stage, Leptochloa chinensis (level)” value (from here on “weeding effect … Leptochloa chinensis (level)”) with Leptochloa chinensis is given as 5 (Level 5: growth control rate is above 85%). For the same compound, the “weeding effect in post-emergence stage, Digitaria sanguinalis (level)” value (“weeding effect … Digitaria sanguinalis (level)” below) in the experiment with Digitaria sanguinalis was 5 (Level 5: growth control rate is above 85%). Moreover, in the experiment on Echinochloa crusgalli, the “weeding effect in post-emergence stage, Echinochloa crusgalli (level)” value (“weeding effect … Echinochloa crusgalli (level)” below) is on record as 5 (Level 5: growth control rate is above 85%). In addition, the “weeding effect in post-emergence stage, Galium aparine (level)” value (“weeding effect … Galium aparine (level)” below) with Galium aparine is recorded as 5 (Level 5: growth control rate is above 85%). Also, in the experiment with Abutilon theophrasti, the “weeding effect in post-emergence stage, Abutilon theophrasti (level)” value (“weeding effect … Abutilon theophrasti (level)” for short) is on record as 5 (Level 5: growth control rate is above 85%). In addition, the “weeding effect in post-emergence stage, Setaria viridis (level)” value (“weeding effect … Setaria viridis (level)” below) in the experiment with Setaria viridis is recorded as 5 (Level 5: growth control rate is above 85%). For the same compound, the “weeding effect in post-emergence stage, Amaranthus retroflexus (level)” value (from here on “weeding effect … Amaranthus retroflexus (level)”) in the experiment on Amaranthus retroflexus is given as 5 (Level 5: growth control rate is above 85%).
`CCC(C)=NOC(=O)C1(C)CC(c2cc(-n3c(=O)n(C)c(=S)n(C)c3=O)c(F)cc2Cl)=NO1` (mixture of isomers) [Compound 79]: the “weeding effect … Eleusine indica (level)” value in the experiment on Eleusine indica is recorded as 5 (Level 5: growth control rate is above 85%). The “weeding effect … Veronica didyma Tenore (level)” value with Veronica didyma Tenore was 5 (Level 5: growth control rate is above 85%). In addition, the “weeding effect … Leptochloa chinensis (level)” value in the experiment with Leptochloa chinensis is 5 (Level 5: growth control rate is above 85%). Moreover, the “weeding effect … Digitaria sanguinalis (level)” value in the experiment on Digitaria sanguinalis is reported as 5 (Level 5: growth control rate is above 85%). The “weeding effect … Echinochloa crusgalli (level)” value in the experiment with Echinochloa crusgalli is 5 (Level 5: growth control rate is above 85%). Further, the “weeding effect … Galium aparine (level)” value with Galium aparine is listed as 5 (Level 5: growth control rate is above 85%). Further, the “weeding effect … Abutilon theophrasti (level)” value with Abutilon theophrasti is listed as 5 (Level 5: growth control rate is above 85%). In the experiment with Setaria viridis, the “weeding effect … Setaria viridis (level)” value is 5 (Level 5: growth control rate is above 85%). For the same compound, the “weeding effect … Amaranthus retroflexus (level)” value in the experiment on Amaranthus retroflexus is 5 (Level 5: growth control rate is above 85%).
`C/C=N/OC(=O)C1(C)CC(c2cc(-n3c(=O)n(C)c(=S)n(C)c3=S)c(F)cc2Cl)=NO1` (stereo not drawn) [Compound 54]: the “weeding effect … Eleusine indica (level)” value in the experiment with Eleusine indica is listed as 5 (Level 5: growth control rate is above 85%). Further, the “weeding effect … Veronica didyma Tenore (level)” value in the experiment on Veronica didyma Tenore is reported as 5 (Level 5: growth control rate is above 85%). Further, in the experiment on Leptochloa chinensis, the “weeding effect … Leptochloa chinensis (level)” value is 5 (Level 5: growth control rate is above 85%). Moreover, the “weeding effect … Digitaria sanguinalis (level)” value in the experiment with Digitaria sanguinalis was 5 (Level 5: growth control rate is above 85%). In addition, the “weeding effect … Echinochloa crusgalli (level)” value in the experiment on Echinochloa crusgalli is listed as 5 (Level 5: growth control rate is above 85%). Also, the “weeding effect … Galium aparine (level)” value in the experiment on Galium aparine was 5 (Level 5: growth control rate is above 85%). The “weeding effect … Abutilon theophrasti (level)” value with Abutilon theophrasti is 5 (Level 5: growth control rate is above 85%). Moreover, the “weeding effect … Setaria viridis (level)” value with Setaria viridis is on record as 5 (Level 5: growth control rate is above 85%). The “weeding effect … Amaranthus retroflexus (level)” value in the experiment with Amaranthus retroflexus was 5 (Level 5: growth control rate is above 85%).
In the case of `COC/C(C)=N/OC(=O)C1(C)CC(c2cc(-n3c(=O)n(C)c(=S)n(C)c3=S)c(F)cc2Cl)=NO1` (stereo not drawn) [Compound 68], in the experiment on Eleusine indica, the “weeding effect … Eleusine indica (level)” value is recorded as 5 (Level 5: growth control rate is above 85%). Moreover, in the experiment on Veronica didyma Tenore, the “weeding effect … Veronica didyma Tenore (level)” value is reported as 5 (Level 5: growth control rate is above 85%). Further, in the experiment on Leptochloa chinensis, the “weeding effect … Leptochloa chinensis (level)” value is reported as 5 (Level 5: growth control rate is above 85%). Moreover, the “weeding effect … Digitaria sanguinalis (level)” value with Digitaria sanguinalis was 5 (Level 5: growth control rate is above 85%). In addition, the “weeding effect … Echinochloa crusgalli (level)” value in the experiment with Echinochloa crusgalli is recorded as 5 (Level 5: growth control rate is above 85%). For the same compound, the “weeding effect … Galium aparine (level)” value in the experiment on Galium aparine is reported as 5 (Level 5: growth control rate is above 85%). For the same compound, the “weeding effect … Abutilon theophrasti (level)” value in the experiment with Abutilon theophrasti was 5 (Level 5: growth control rate is above 85%). Besides, the “weeding effect … Setaria viridis (level)” value in the experiment on Setaria viridis is recorded as 5 (Level 5: growth control rate is above 85%). In addition, the “weeding effect … Amaranthus retroflexus (level)” value with Amaranthus retroflexus was 5 (Level 5: growth control rate is above 85%).
Take `Cn1c(=S)n(C)c(=S)n(-c2cc(C3=NOC(C)(C(=O)ON=C(c4ccccc4)c4ccccc4)C3)c(Cl)cc2F)c1=O` (stereo not drawn) [Compound 71]: in the experiment with Eleusine indica, the “weeding effect … Eleusine indica (level)” value is given as 5 (Level 5: growth control rate is above 85%). Further, the “weeding effect … Veronica didyma Tenore (level)” value in the experiment with Veronica didyma Tenore was 5 (Level 5: growth control rate is above 85%). In addition, the “weeding effect … Leptochloa chinensis (level)” value with Leptochloa chinensis is 5 (Level 5: growth control rate is above 85%). In addition, the “weeding effect … Digitaria sanguinalis (level)” value in the experiment with Digitaria sanguinalis was 5 (Level 5: growth control rate is above 85%). Further, the “weeding effect … Echinochloa crusgalli (level)” value in the experiment with Echinochloa crusgalli is recorded as 5 (Level 5: growth control rate is above 85%). Besides, the “weeding effect … Galium aparine (level)” value in the experiment on Galium aparine is 5 (Level 5: growth control rate is above 85%). In addition, the “weeding effect … Abutilon theophrasti (level)” value in the experiment on Abutilon theophrasti is given as 5 (Level 5: growth control rate is above 85%). The “weeding effect … Setaria viridis (level)” value in the experiment on Setaria viridis is listed as 5 (Level 5: growth control rate is above 85%). Also, the “weeding effect … Amaranthus retroflexus (level)” value in the experiment with Amaranthus retroflexus is on record as 5 (Level 5: growth control rate is above 85%).
Consider `Cn1c(=S)n(C)c(=O)n(-c2cc(C3=NOC(C)(C(=O)ON=Cc4ccccc4)C3)c(Cl)cc2F)c1=O` (mixture of isomers) [Compound 90], for which, in the experiment with Eleusine indica, the “weeding effect … Eleusine indica (level)” value is listed as 5 (Level 5: growth control rate is above 85%). The “weeding effect … Veronica didyma Tenore (level)” value with Veronica didyma Tenore is given as 5 (Level 5: growth control rate is above 85%). Also, the “weeding effect … Leptochloa chinensis (level)” value with Leptochloa chinensis was 5 (Level 5: growth control rate is above 85%). Further, in the experiment on Digitaria sanguinalis, the “weeding effect … Digitaria sanguinalis (level)” value is listed as 5 (Level 5: growth control rate is above 85%). Also, the “weeding effect … Echinochloa crusgalli (level)” value in the experiment with Echinochloa crusgalli is on record as 5 (Level 5: growth control rate is above 85%). Also, the “weeding effect … Galium aparine (level)” value in the experiment on Galium aparine is on record as 5 (Level 5: growth control rate is above 85%). The “weeding effect … Abutilon theophrasti (level)” value in the experiment on Abutilon theophrasti is listed as 5 (Level 5: growth control rate is above 85%). Besides, the “weeding effect … Setaria viridis (level)” value with Setaria viridis is reported as 5 (Level 5: growth control rate is above 85%). Further, the “weeding effect … Amaranthus retroflexus (level)” value with Amaranthus retroflexus is given as 5 (Level 5: growth control rate is above 85%).
In the case of `Cc1ccc(C=NOC(=O)C2(C)CC(c3cc(-n4c(=O)n(C)c(=S)n(C)c4=O)c(F)cc3Cl)=NO2)s1` (mixture of isomers) [Compound 118], the “weeding effect … Eleusine indica (level)” value in the experiment with Eleusine indica was 5 (Level 5: growth control rate is above 85%). The “weeding effect … Veronica didyma Tenore (level)” value in the experiment with Veronica didyma Tenore is 5 (Level 5: growth control rate is above 85%). For the same compound, the “weeding effect … Leptochloa chinensis (level)” value with Leptochloa chinensis is recorded as 5 (Level 5: growth control rate is above 85%). Besides, the “weeding effect … Digitaria sanguinalis (level)” value in the experiment on Digitaria sanguinalis is recorded as 5 (Level 5: growth control rate is above 85%). Further, the “weeding effect … Echinochloa crusgalli (level)” value in the experiment with Echinochloa crusgalli is reported as 5 (Level 5: growth control rate is above 85%). Moreover, the “weeding effect … Galium aparine (level)” value in the experiment with Galium aparine was 5 (Level 5: growth control rate is above 85%). In addition, the “weeding effect … Abutilon theophrasti (level)” value in the experiment on Abutilon theophrasti was 5 (Level 5: growth control rate is above 85%). In the experiment on Setaria viridis, the “weeding effect … Setaria viridis (level)” value is listed as 5 (Level 5: growth control rate is above 85%). Moreover, the “weeding effect … Amaranthus retroflexus (level)” value with Amaranthus retroflexus is 5 (Level 5: growth control rate is above 85%).
As to `C/C(=N\OC(=O)C1(C)CC(c2cc(-n3c(=O)n(C)c(=S)n(C)c3=S)c(F)cc2Cl)=NO1)C(C)(C)C` (stereo not drawn) [Compound 59], the “weeding effect … Eleusine indica (level)” value in the experiment with Eleusine indica is given as 5 (Level 5: growth control rate is above 85%). The “weeding effect … Veronica didyma Tenore (level)” value in the experiment on Veronica didyma Tenore is listed as 5 (Level 5: growth control rate is above 85%). Moreover, the “weeding effect … Leptochloa chinensis (level)” value with Leptochloa chinensis was 5 (Level 5: growth control rate is above 85%). Besides, the “weeding effect … Digitaria sanguinalis (level)” value in the experiment on Digitaria sanguinalis is listed as 5 (Level 5: growth control rate is above 85%). In addition, the “weeding effect … Echinochloa crusgalli (level)” value with Echinochloa crusgalli is 5 (Level 5: growth control rate is above 85%). In the experiment with Galium aparine, the “weeding effect … Galium aparine (level)” value is 5 (Level 5: growth control rate is above 85%). The “weeding effect … Abutilon theophrasti (level)” value with Abutilon theophrasti is 5 (Level 5: growth control rate is above 85%). The “weeding effect … Setaria viridis (level)” value with Setaria viridis is 5 (Level 5: growth control rate is above 85%). In addition, in the experiment on Amaranthus retroflexus, the “weeding effect … Amaranthus retroflexus (level)” value is 5 (Level 5: growth control rate is above 85%).
Take `CC(C)=NOC(=O)C1(C)CC(c2cc(-n3c(=S)cc(C(F)(F)F)n(C)c3=O)c(F)cc2Cl)=NO1` (stereo not drawn) [Compound 197]: in the experiment on Eleusine indica, the “weeding effect … Eleusine indica (level)” value is reported as 5 (Level 5: growth control rate is above 85%). Also, the “weeding effect … Veronica didyma Tenore (level)” value with Veronica didyma Tenore was 5 (Level 5: growth control rate is above 85%). Also, in the experiment with Leptochloa chinensis, the “weeding effect … Leptochloa chinensis (level)” value was 5 (Level 5: growth control rate is above 85%). Further, the “weeding effect … Digitaria sanguinalis (level)” value with Digitaria sanguinalis is on record as 5 (Level 5: growth control rate is above 85%). Further, the “weeding effect … Echinochloa crusgalli (level)” value with Echinochloa crusgalli is given as 5 (Level 5: growth control rate is above 85%). In the experiment with Galium aparine, the “weeding effect … Galium aparine (level)” value is given as 5 (Level 5: growth control rate is above 85%). In addition, the “weeding effect … Abutilon theophrasti (level)” value in the experiment with Abutilon theophrasti is given as 5 (Level 5: growth control rate is above 85%). In addition, the “weeding effect … Setaria viridis (level)” value in the experiment with Setaria viridis is 5 (Level 5: growth control rate is above 85%). For the same compound, in the experiment on Amaranthus retroflexus, the “weeding effect … Amaranthus retroflexus (level)” value is listed as 5 (Level 5: growth control rate is above 85%).
